This is an account of results in publication PMC9916685, “Discovery of Small Molecule COX-1 and Akt Inhibitors as Anti-NSCLC Agents Endowed with Anti-Inflammatory Action” (International Journal of Molecular Sciences, 2023).

Where only a bound is given, the exact number is not on record here.

One series concerns the target T1, COX-2 (Ovis aries, UniProt P79208).
T1 construct: purchased Cayman
T1 sequence (P79208 17-603): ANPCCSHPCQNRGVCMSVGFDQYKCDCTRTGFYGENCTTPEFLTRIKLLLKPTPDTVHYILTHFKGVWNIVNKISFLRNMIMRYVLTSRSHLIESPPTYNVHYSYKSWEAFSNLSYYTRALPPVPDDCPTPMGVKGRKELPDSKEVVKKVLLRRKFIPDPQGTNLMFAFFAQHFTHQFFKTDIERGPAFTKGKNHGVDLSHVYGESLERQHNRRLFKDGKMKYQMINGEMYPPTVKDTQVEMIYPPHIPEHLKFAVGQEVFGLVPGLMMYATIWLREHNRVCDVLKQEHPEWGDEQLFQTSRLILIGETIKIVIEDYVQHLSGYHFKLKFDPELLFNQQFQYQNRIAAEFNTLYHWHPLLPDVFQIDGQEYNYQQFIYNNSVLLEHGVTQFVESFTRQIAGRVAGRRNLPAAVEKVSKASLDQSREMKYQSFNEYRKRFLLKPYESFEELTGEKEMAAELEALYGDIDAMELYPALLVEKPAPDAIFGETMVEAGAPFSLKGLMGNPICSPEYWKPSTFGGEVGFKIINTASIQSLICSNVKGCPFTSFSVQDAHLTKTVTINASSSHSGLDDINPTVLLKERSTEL
The series can be described thus: COX (ovine) colorimetric inhibitor screening assay, COX-2. To be noted: ovine COX-2, colorimetric, triplicate, mean ± SD. The class given is biochemical. As for the experimental part:
(§1) COX (ovine) Colorimetric Inhibitor Screening Assay (Cayman, Ann Arbor, MI, USA) was conducted to detect the peroxidase component of COX-1 and COX-2 according to the manufacturer’s instructions. The assay was performed in triplicate. Half maximal inhibitory concentration (IC50) data (µM) were expressed as mean ± SD.

Series [1] concerns L929 mouse fibroblast (normal) cells. The series can be described thus: MTT cytotoxicity assay, L929 normal cells. The class given is cell-based. To be noted: MTT, L929 mouse fibroblast cells, mean ± SD. The method, then:
A549 human lung adenocarcinoma and L929 mouse fibroblast cell lines were obtained from American Type Culture Collection (ATCC) (Manassas, VA, USA). Both cell lines were cultured, and drug treatments were carried out as previously reported.
MTT assay was conducted as previously explained in the literature with small modifications. Cisplatin was used as a positive control. The assay was performed in triplicate. IC50 data (µM) were expressed as mean ± SD.

For another series, the target named is T2, COX-1 (Ovis aries, UniProt P05979).
T2 construct: purchased Cayman
T2 sequence (P05979 25-600): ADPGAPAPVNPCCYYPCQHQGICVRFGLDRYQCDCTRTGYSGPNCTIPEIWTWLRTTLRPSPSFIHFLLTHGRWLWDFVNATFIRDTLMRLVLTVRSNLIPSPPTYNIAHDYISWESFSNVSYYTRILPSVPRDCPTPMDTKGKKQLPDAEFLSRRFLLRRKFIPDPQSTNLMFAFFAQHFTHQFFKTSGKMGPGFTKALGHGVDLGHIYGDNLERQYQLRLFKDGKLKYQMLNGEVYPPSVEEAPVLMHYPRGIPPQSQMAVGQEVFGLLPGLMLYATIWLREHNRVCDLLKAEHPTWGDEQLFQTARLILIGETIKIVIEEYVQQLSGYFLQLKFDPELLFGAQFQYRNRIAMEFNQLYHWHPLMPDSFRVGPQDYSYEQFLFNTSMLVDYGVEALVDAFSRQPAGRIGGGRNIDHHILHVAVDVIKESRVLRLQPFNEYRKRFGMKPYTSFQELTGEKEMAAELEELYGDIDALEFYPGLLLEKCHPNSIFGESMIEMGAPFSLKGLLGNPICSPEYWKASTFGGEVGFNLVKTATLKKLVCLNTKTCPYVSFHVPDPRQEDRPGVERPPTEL
The series can be described thus: COX (ovine) colorimetric inhibitor screening assay, COX-1. The class given is biochemical. To be noted: for IC50: ovine COX-1, colorimetric, triplicate, mean ± SD; for SI (IC50 for COX-1/IC50 for COX-2): selectivity index. As for the experimental part:
as §1

As a reminder, the IC50 is the concentration that inhibits the measured activity by half. As usually defined, the melting point is the temperature of the solid-liquid transition. `O=C(Cc1c[nH]c2ccccc12)NN=Cc1ccc(N2CCCC2)cc1` [Compound 3a, 2-(1H-Indol-3-yl)-N′-[4-(pyrrolidin-1-yl)benzylidene]acetohydrazide]: the melting point was in the range of 302 to 303 °C. The same compound had an IC50 against COX-2 of 12.5 ± 0.71 µM. This compound returned a half-inhibitory concentration (IC50) in series [1] of 17.3 ± 2.08 µM. Further, on COX-1, the IC50 amounted to 10.3 ± 0.35 µM and the “SI (IC50 for COX-1/IC50 for COX-2)” value worked out at 0.83.

In the case of `N#Cc1ccc(NC(=S)NNC(=O)Cc2c[nH]c3ccccc23)cc1` [Compound 4c, 4-(4-Cyanophenyl)-1-[2-(1H-indol-3-yl)acetyl]thiosemicarbazide], the melting point was 180 to 182 °C. This compound gave a 50% inhibitory concentration (IC50) on COX-2 of 56.5 ± 4.49 µM. Moreover, the half-inhibitory concentration (IC50) in series [1] is 26.3 ± 3.51 µM. Further, at COX-1, the IC50 is greater than 100 µM and the “SI (IC50 for COX-1/IC50 for COX-2)” value is on record as greater than 1.77.

In turn, `CN1CCN(c2ccc(C=NNC(=O)Cc3c[nH]c4ccccc34)cc2)CC1` [Compound 3d, 2-(1H-Indol-3-yl)-N′-[4-(4-methylpiperazin-1-yl)benzylidene]acetohydrazide] yielded a melting point of 218 to 220 °C. The compound further came in with a 50% inhibitory concentration (IC50) at COX-2 greater than 100 µM. The same compound registered an IC50 in series [1] of 20 ± 1.73 µM. On COX-1, 78.5 ± 8.5 µM corresponded to half-maximal inhibition (IC50) and the “SI (IC50 for COX-1/IC50 for COX-2)” value is given as less than 0.79.

As for `COc1ccc2[nH]cc(C=NNC(=O)Cc3c[nH]c4ccccc34)c2c1` [Compound 3j, 2-(1H-Indol-3-yl)-N′-[(5-methoxy-1H-indol-3-yl)methylene]acetohydrazide], the figures for the IC50 (against COX-2; in series [1]; on COX-1) were 44.5 ± 6.36 µM, 43 ± 1.73 µM and greater than 100 µM, respectively. In addition, the “SI (IC50 for COX-1/IC50 for COX-2)” value at COX-1 is recorded as greater than 2.25.

`Cn1cc(C=NNC(=O)Cc2c[nH]c3ccccc23)c2ccccc21` [Compound 3i, 2-(1H-Indol-3-yl)-N′-[(1-methyl-1H-indol-3-yl)methylene]acetohydrazide]: the melting point was in the range of 221 to 224 °C. The same compound showed an IC50 against COX-2 greater than 100 µM. In series [1], the IC50 is 42.3 ± 0.58 µM. Also, at COX-1, half-maximal inhibition (IC50) required 31.2 ± 1.25 µM and the “SI (IC50 for COX-1/IC50 for COX-2)” value is less than 0.31.

`O=C(Cc1c[nH]c2ccccc12)NNC(=S)Nc1ccc(C(F)(F)F)cc1` [Compound 4b, 4-(4-Trifluoromethylphenyl)-1-[2-(1H-indol-3-yl)acetyl]thiosemicarbazide] displayed a melting point of 184 to 186 °C. At COX-2, the midpoint of inhibition, the IC50, lay at 61.5 ± 0.71 µM. This compound also registered an IC50 in series [1] of 22.7 ± 2.08 µM. For the same compound, on COX-1, the IC50 is greater than 100 µM and the “SI (IC50 for COX-1/IC50 for COX-2)” value is on record as greater than 1.63.

Regarding `CS(=O)(=O)c1ccc(C=NNC(=O)Cc2c[nH]c3ccccc23)cc1` [Compound 3e, 2-(1H-Indol-3-yl)-N′-(4-methylsulfonylbenzylidene)acetohydrazide], the melting point was 264 to 265 °C. Also, the IC50 at COX-2 stood at 35 ± 9.9 µM. For the same compound, the IC50 in series [1] is 85 ± 17.3 µM. Moreover, at COX-1, the midpoint of inhibition, the IC50, lay at 83.8 ± 6.25 µM and the “SI (IC50 for COX-1/IC50 for COX-2)” value is on record as 2.39.

Compound `O=C(Cc1c[nH]c2ccccc12)NNC(=S)Nc1ccc2c(c1)OCO2` [Compound 4f, 4-(1,3-Benzodioxol-5-yl)-1-[2-(1H-indol-3-yl)acetyl]thiosemicarbazide] showed a melting point of 168 to 170 °C. At COX-2, the IC50 is 51.5 ± 0.71 µM. It took 14 ± 5.29 µM to reach half-maximal inhibition in series [1] (IC50). Further, at COX-1, the half-inhibitory concentration (IC50) is greater than 100 µM and the “SI (IC50 for COX-1/IC50 for COX-2)” value was greater than 1.94.

In turn, `CC(=NNC(=O)Cc1c[nH]c2ccccc12)c1ccc(S(C)(=O)=O)cc1` [Compound 3f, 2-(1H-Indol-3-yl)-N′-[1-(4-methylsulfonylphenyl)ethylidene]acetohydrazide] displayed a melting point of 204 to 205 °C. On COX-2, this compound registered a concentration for half-maximal inhibition (IC50) of 51 ± 12.7 µM. In series [1], this compound showed an IC50 of less than 3.9 µM. Also, on COX-1, inhibition was half-maximal at 93.7 ± 6.25 µM (IC50) and the “SI (IC50 for COX-1/IC50 for COX-2)” value was 1.84.

In turn, `O=C(Cc1c[nH]c2ccccc12)NN=Cc1ccc(N2CCCCC2)cc1` [Compound 3c, 2-(1H-Indol-3-yl)-N′-[4-(piperidin-1-yl)benzylidene]acetohydrazide] gave a melting point of 265 to 266 °C. Further, the IC50 on COX-2 was greater than 100 µM. In series [1], this compound had an IC50 of 21.3 ± 0.58 µM. Also, the IC50 against COX-1 was greater than 100 µM.

For the compound `O=C(Cc1c[nH]c2ccccc12)NN=Cc1ccc(OCCN2CCOCC2)cc1` [Compound 3h, 2-(1H-Indol-3-yl)-N′-[4-(2-morpholinoethoxy)benzylidene]acetohydrazide], the melting point lay within 132 to 135 °C. The compound further showed an IC50 at COX-2 of 50.5 ± 0.7 µM. Besides, the IC50 in series [1] was less than 3.9 µM. Moreover, on COX-1, inhibition was half-maximal at 38.5 ± 1.5 µM (IC50) and the “SI (IC50 for COX-1/IC50 for COX-2)” value came out at 0.76.

For `O=C(Cc1c[nH]c2ccccc12)NNC(=S)Nc1ccc(S(=O)(=O)N2CCCCC2)cc1` [Compound 4d, 4-[4-(Piperidin-1-ylsulfonyl)phenyl]-1-[2-(1H-indol-3-yl)acetyl]thiosemicarbazide], the melting point fell in the range of 182 to 184 °C. On COX-2, the half-maximal inhibitory concentration (IC50) is 59 ± 8.48 µM. In addition, it took 45.7 ± 6.03 µM to reach half-maximal inhibition in series [1] (IC50). Also, at COX-1, the IC50 was greater than 100 µM and the “SI (IC50 for COX-1/IC50 for COX-2)” value was greater than 1.69.

As to `CC(=NNC(=O)Cc1c[nH]c2ccccc12)c1ccc(N2CCOCC2)cc1` [Compound 3g, 2-(1H-Indol-3-yl)-N′-[1-(4-morpholinophenyl)ethylidene]acetohydrazide], the melting point is 198 to 199 °C. On COX-2, 52.5 ± 0.71 µM corresponded to half-maximal inhibition (IC50). Besides, the IC50 in series [1] is less than 3.9 µM. In addition, at COX-1, the midpoint of inhibition, the IC50, lay at 51 ± 1 µM and the “SI (IC50 for COX-1/IC50 for COX-2)” value is reported as 0.97.

The compound `O=C(Cc1c[nH]c2ccccc12)NNC(=S)Nc1ccc(-n2cccn2)cc1` [Compound 4e, 4-[4-(1H-Pyrazol-1-yl)phenyl]-1-[2-(1H-indol-3-yl)acetyl]thiosemicarbazide] showed a melting point of 196 to 198 °C. This compound also came in with an IC50 at COX-2 of 31.5 ± 2.12 µM. Besides, the half-inhibitory concentration (IC50) in series [1] was found to be 62.3 ± 7.51 µM. On COX-1, the IC50 was greater than 100 µM and the “SI (IC50 for COX-1/IC50 for COX-2)” value was greater than 3.17.

`O=C(Cc1c[nH]c2ccccc12)NNC(=S)Nc1ccc(OCc2ccccc2)cc1` [Compound 4g, 4-[4-(Benzyloxy)phenyl]-1-[2-(1H-indol-3-yl)acetyl]thiosemicarbazide] gave a melting point of 198 to 200 °C. The compound further returned an IC50 at COX-2 of 59.5 ± 2.12 µM. In series [1], the IC50 amounted to 14 ± 3.46 µM. On COX-1, the IC50 is greater than 100 µM and the “SI (IC50 for COX-1/IC50 for COX-2)” value was greater than 1.68.
